Results on 18 molecules are retold here after patent US11897862B2 (Gilead Sciences, Inc., priority 2022, dated 2024).

In test [1] the target is T1, IKZF1 (Homo sapiens, UniProt Q13422+Q96SW2).
T1 construct: expressed in transfected cells
The test is described as follows: HEK293 HiBiT in vitro degradation of IKZF1. The class given is cell-based. As to conditions: for Dmax: HEK293, HEK293 HiBiT, maximum degradation at the highest concentration tested; for DC50: HEK293 HiBiT, 18-24 hr incubation, normalized to DMSO control, read-out: IKZF1 EC50. The method in brief: (§1)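 Flp-In T-REx HEK293 stable pools carry a single integrated copy of C-terminal HiBiT-tagged IKZF1, IKZF2 or SALL4 under a tetracycline operator, induced overnight at 37 °C with doxycycline ([…] final). Cells were then treated with serially diluted compounds for 18-24 h. Nano-Glo lytic luminescence gave EC50 and Dmax.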

The target in test [2] is IKZF2 (Homo sapiens, UniProt Q96SW2+Q9UKS7). The test is described as follows: HEK293 HiBiT in vitro degradation of IKZF2. Also noted: expressed in transfected cells. The class given is cell-based. To be noted: for Dmax: HEK293, HEK293 HiBiT, maximum degradation at the highest concentration tested; for DC50: HEK293 HiBiT, 18-24 hr incubation, normalized to DMSO control, read-out: IKZF2 EC50. In a few lines: as §1
IKZF2, sequence (Q9UKS7 1-500 isoform Q9UKS7-2): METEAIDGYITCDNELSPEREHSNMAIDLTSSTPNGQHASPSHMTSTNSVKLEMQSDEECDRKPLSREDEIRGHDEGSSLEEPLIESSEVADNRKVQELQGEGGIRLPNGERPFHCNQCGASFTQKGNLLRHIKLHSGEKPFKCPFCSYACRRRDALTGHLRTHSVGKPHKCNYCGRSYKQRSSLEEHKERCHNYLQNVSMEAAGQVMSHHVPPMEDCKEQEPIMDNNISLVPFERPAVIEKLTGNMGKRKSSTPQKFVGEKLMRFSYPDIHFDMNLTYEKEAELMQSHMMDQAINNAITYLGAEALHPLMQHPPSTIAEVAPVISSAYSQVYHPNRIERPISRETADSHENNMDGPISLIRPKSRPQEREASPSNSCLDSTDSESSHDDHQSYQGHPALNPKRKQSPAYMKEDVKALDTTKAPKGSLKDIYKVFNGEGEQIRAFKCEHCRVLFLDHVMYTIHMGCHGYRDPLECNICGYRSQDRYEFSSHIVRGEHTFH
IKZF2, sequence (Q96SW2 whole entry): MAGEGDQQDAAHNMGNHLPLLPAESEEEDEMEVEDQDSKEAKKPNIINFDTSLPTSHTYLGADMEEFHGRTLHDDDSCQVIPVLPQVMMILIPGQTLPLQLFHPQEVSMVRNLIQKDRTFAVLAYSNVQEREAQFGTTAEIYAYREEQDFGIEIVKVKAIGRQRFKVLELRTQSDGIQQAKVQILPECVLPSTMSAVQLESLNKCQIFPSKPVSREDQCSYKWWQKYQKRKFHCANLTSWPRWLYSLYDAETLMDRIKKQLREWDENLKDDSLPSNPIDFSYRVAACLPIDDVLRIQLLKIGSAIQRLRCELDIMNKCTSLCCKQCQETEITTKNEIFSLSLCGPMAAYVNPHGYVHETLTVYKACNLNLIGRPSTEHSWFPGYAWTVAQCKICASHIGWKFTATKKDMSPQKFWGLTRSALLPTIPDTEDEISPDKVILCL
IKZF2, sequence (Q16531 whole entry partner): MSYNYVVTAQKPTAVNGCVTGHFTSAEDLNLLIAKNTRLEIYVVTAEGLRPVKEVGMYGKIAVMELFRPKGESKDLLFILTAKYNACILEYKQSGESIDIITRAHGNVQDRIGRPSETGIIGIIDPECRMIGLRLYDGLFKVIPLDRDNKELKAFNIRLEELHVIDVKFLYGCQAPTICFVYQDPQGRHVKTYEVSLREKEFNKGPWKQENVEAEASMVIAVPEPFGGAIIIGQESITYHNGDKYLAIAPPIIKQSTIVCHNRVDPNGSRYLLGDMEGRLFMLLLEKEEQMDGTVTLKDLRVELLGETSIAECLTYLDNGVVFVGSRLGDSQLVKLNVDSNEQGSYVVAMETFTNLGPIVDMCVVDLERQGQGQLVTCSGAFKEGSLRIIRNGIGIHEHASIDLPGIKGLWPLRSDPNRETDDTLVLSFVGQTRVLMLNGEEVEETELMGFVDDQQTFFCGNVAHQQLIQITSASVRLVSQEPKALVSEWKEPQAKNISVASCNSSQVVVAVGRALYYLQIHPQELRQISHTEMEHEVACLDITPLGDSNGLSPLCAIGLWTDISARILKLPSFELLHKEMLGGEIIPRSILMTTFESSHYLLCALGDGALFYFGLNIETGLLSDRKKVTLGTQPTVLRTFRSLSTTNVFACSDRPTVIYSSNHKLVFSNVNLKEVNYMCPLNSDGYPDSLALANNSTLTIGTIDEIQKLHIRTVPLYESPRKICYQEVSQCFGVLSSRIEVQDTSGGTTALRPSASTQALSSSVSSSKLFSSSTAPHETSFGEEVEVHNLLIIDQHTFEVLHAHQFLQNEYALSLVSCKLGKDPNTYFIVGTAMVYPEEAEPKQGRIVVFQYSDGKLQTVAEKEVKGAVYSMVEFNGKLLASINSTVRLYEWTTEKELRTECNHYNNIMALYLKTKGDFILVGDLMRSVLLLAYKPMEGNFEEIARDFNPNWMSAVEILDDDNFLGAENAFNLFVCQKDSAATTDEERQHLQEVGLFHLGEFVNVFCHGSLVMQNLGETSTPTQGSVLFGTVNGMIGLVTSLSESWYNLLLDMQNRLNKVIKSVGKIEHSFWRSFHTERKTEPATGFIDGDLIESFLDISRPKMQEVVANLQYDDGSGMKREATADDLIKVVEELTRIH
In general terms: HiBiT is a short tag that completes a luciferase, so light tracks the accessible tagged protein.

T1 sequence (Q13422 whole entry): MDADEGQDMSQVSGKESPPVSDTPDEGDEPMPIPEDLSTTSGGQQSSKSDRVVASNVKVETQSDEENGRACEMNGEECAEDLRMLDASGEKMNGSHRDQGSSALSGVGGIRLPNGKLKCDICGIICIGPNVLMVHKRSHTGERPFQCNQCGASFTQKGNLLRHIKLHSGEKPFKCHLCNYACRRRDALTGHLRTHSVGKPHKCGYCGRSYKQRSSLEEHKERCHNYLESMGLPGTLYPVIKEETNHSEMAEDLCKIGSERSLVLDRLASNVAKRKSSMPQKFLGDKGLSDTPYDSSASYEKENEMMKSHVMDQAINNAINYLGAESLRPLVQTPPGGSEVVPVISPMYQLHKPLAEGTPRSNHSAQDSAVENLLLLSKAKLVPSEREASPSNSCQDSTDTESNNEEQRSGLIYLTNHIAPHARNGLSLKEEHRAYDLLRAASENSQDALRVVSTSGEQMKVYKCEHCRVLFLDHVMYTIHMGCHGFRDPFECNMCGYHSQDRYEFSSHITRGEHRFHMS
T1 sequence (Q96SW2 whole entry): as the sequence (Q96SW2 whole entry) above
T1 sequence (Q16531 whole entry partner): as the sequence (Q16531 whole entry partner) above

The Dmax is the largest share of the target that was removed. A lower Dmax goes with shallow degradation. For `O=C1CCC(N2Cc3cc(C[C@H]4CCCC[C@@H]4NCc4cncs4)ccc3C2=O)C(=O)N1` (stereo partly drawn) [Example 6, 3-(1-oxo-5-(((1R,2S)-2-((thiazol-5-ylmethyl)amino)cyclohexyl)methyl)isoindolin-2-yl)piperidine-2,6-dione], in test [1], the greatest degradation seen (Dmax) was found to be 32% and the DC50 turned out to be 0.122 µM. Moreover, in test [2], the Dmax amounted to 90% and the DC50 worked out at 0.03 µM.

On to `O=C1CCC(N2Cc3cc(C[C@H]4CCCC[C@@H]4NCC4CC4)ccc3C2=O)C(=O)N1` (stereo partly drawn) [Example 8, 3-(5-(((1R,2S)-2-((cyclopropylmethyl)amino)cyclohexyl)methyl)-1-oxoisoindolin-2-yl)piperidine-2,6-dione], for which, in test [1], the Dmax was determined as 34% and the DC50 stood at 0.229 µM. In test [2], the Dmax stood at 94% and the DC50 was determined as 0.047 µM.

As to `O=C1CCC(N2Cc3cc(C[C@H]4CCCC[C@@H]4NCc4ccc5ccccc5c4)ccc3C2=O)C(=O)N1` (stereo partly drawn) [Example 9, 3-(5-(((1R,2S)-2-((naphthalen-2-ylmethyl)amino)cyclohexyl)methyl)-1-oxoisoindolin-2-yl)piperidine-2,6-dione], the DC50 in test [1] was greater than 1 µM. Also, in test [2], the Dmax was 92% and the DC50 was determined as 0.019 µM.

Turning to `O=C1CCC(N2Cc3cc(C[C@H]4CCCC[C@@H]4NCC4CCC(F)(F)CC4)ccc3C2=O)C(=O)N1` (stereo partly drawn) [Example 10, 3-(5-(((1R,2S)-2-(((4,4-difluorocyclohexyl)methyl)amino)cyclohexyl)methyl)-1-oxoisoindolin-2-yl)piperidine-2,6-dione], the Dmax in test [1] is 46%; in test [2] it was 96%. Further, the DC50 in test [1] was determined as 0.388 µM; in test [2], 0.013 µM.

`O=C1CCC(N2Cc3c(ccc(C[C@H]4CCCC[C@@H]4NCc4ccccc4)c3F)C2=O)C(=O)N1` (stereo partly drawn) [Example 11, 3-(5-(((1R,2S)-2-(benzylamino)cyclohexyl)methyl)-4-fluoro-1-oxoisoindolin-2-yl)piperidine-2,6-dione]: the DC50 in test [1] was greater than 1 µM. Also, in test [2], the Dmax stood at 98% and the DC50 came out at 0.007 µM.

For `CS(=O)(=O)c1ccc(CN[C@H]2CCCC[C@@H]2Cc2ccc3c(c2)CN(C2CCC(=O)NC2=O)C3=O)cc1` (stereo partly drawn) [Example 12, 3-(5-(((1R,2S)-2-((4-(methylsulfonyl)benzyl)amino)cyclohexyl)methyl)-1-oxoisoindolin-2-yl)piperidine-2,6-dione], the DC50 in test [1] was greater than 1 µM. Besides, in test [2], the Dmax came to 85% and the DC50 turned out to be 0.106 µM.

On to `O=C1CCC(N2Cc3cc(C[C@H]4CCCC[C@@H]4NCc4cc(Cl)cc(Cl)c4)ccc3C2=O)C(=O)N1` (stereo partly drawn) [Example 13, 3-(5-(((1R,2S)-2-((3,5-dichlorobenzyl)amino)cyclohexyl)methyl)-1-oxoisoindolin-2-yl)piperidine-2,6-dione], for which, in test [1], the DC50 was greater than 1 µM. For the same molecule, in test [2], the Dmax amounted to 68% and the DC50 stood at 0.079 µM.

For the molecule `COc1ccc(CN[C@H]2CCCC[C@@H]2Cc2ccc3c(c2)CN(C2CCC(=O)NC2=O)C3=O)cc1` (stereo partly drawn) [Example 14, 3-(5-(((1R,2S)-2-((4-methoxybenzyl)amino)cyclohexyl)methyl)-1-oxoisoindolin-2-yl)piperidine-2,6-dione], in test [1], the DC50 was greater than 1 µM. In test [2], the Dmax stood at 88% and the DC50 amounted to 0.027 µM.

Regarding `O=C1CCC(N2Cc3cc(C[C@H]4CCCC[C@@H]4NCc4cc(F)cc(F)c4)ccc3C2=O)C(=O)N1` (stereo partly drawn) [Example 15, 3-(5-(((1R,2S)-2-((3,5-difluorobenzyl)amino)cyclohexyl)methyl)-1-oxoisoindolin-2-yl)piperidine-2,6-dione], the DC50 in test [1] is greater than 1 µM. For the same molecule, in test [2], the greatest degradation seen (Dmax) stood at 95% and the DC50 was 0.02 µM.

Take `O=C1CCC(N2Cc3cc(C[C@H]4CCCC[C@@H]4NCc4ccc(C(F)(F)F)cc4)ccc3C2=O)C(=O)N1` (stereo partly drawn) [Example 16, 3-(1-oxo-5-(((1R,2S)-2-((4-(trifluoromethyl)benzyl)amino)cyclohexyl)methyl)isoindolin-2-yl)piperidine-2,6-dione]: in test [1], the DC50 was greater than 1 µM. Also, in test [2], the Dmax is 87% and the DC50 is 0.042 µM.

For `N#Cc1ccc(CN[C@H]2CCCC[C@@H]2Cc2ccc3c(c2)CN(C2CCC(=O)NC2=O)C3=O)c(F)c1` (stereo partly drawn) [Example 17, 4-((((1S,2R)-2-((2-(2,6-dioxopiperidin-3-yl)-1-oxoisoindolin-5-yl)methyl)cyclohexyl)amino)methyl)-3-fluorobenzonitrile], the DC50 is greater than 1 µM in test [1] and 0.07 µM in test [2]. The molecule also returned a Dmax in test [2] of 77%.

As for `O=C1CCC(N2Cc3cc(C[C@H]4CCCC[C@@H]4NCc4c(F)cccc4F)ccc3C2=O)C(=O)N1` (stereo partly drawn) [Example 18, 3-(5-(((1R,2S)-2-((2,6-difluorobenzyl)amino)cyclohexyl)methyl)-1-oxoisoindolin-2-yl)piperidine-2,6-dione], the DC50 in test [1] was greater than 1 µM; in test [2], 0.042 µM. For the same molecule, the Dmax in test [2] was found to be 89%.

As to `O=C1CCC(N2Cc3cc(C[C@H]4CCCC[C@@H]4NCc4ccc(F)cc4F)ccc3C2=O)C(=O)N1` (stereo partly drawn) [Example 19, 3-(5-(((1R,2S)-2-((2,4-difluorobenzyl)amino)cyclohexyl)methyl)-1-oxoisoindolin-2-yl)piperidine-2,6-dione], the DC50 in test [1] is greater than 1 µM. In test [2], the Dmax is 89% and the DC50 stood at 0.03 µM.

For the molecule `N#Cc1ccc(CN[C@H]2CCCC[C@@H]2Cc2ccc3c(c2)CN(C2CCC(=O)NC2=O)C3=O)cc1` (stereo partly drawn) [Example 20, 4-((((1S,2R)-2-((2-(2,6-dioxopiperidin-3-yl)-1-oxoisoindolin-5-yl)methyl)cyclohexyl)amino)methyl)benzonitrile], in test [1], the Dmax stood at 35% and the DC50 amounted to 0.099 µM. Besides, in test [2], the Dmax was determined as 94% and the DC50 came out at 0.019 µM.

`CN(Cc1ccccc1)[C@H]1CCCC[C@@H]1Cc1ccc2c(c1)CN(C1CCC(=O)NC1=O)C2=O` (stereo partly drawn) [Example 21, 3-(5-(((1R,2S)-2-(benzyl(methyl)amino)cyclohexyl)methyl)-1-oxoisoindolin-2-yl)piperidine-2,6-dione]: the DC50 in test [1] is greater than 1 µM. In addition, in test [2], the Dmax is 49% and the DC50 came to 0.409 µM.

For `O=C1CCC(N2Cc3cc(C[C@H]4CCCC[C@@H]4NCc4cc(F)ccc4F)ccc3C2=O)C(=O)N1` (stereo partly drawn) [Example 22, 3-(5-(((1R,2S)-2-((2,5-difluorobenzyl)amino)cyclohexyl)methyl)-1-oxoisoindolin-2-yl)piperidine-2,6-dione], the DC50 in test [1] was greater than 1 µM. In addition, in test [2], the Dmax is 86% and the DC50 is 0.034 µM.

`[2H]c1c([2H])c([2H])c(CN(Cc2c([2H])c([2H])c([2H])c([2H])c2[2H])[C@H]2CCCC[C@@H]2Cc2ccc3c(c2)CN(C2CCC(=O)NC2=O)C3=O)c([2H])c1[2H]` (stereo partly drawn) [Example 26, 3-(5-(((1R,2S)-2-(bis((phenyl-d5)methyl)amino)cyclohexyl)methyl)-1-oxoisoindolin-2-yl)piperidine-2,6-dione]: in test [1], the DC50 was greater than 1 µM. Further, in test [2], the Dmax is 57% and the DC50 is 0.53 µM.

On to `CC1(C)CCC(N[C@H]2CCCC[C@@H]2Cc2ccc3c(c2)CN(C2CCC(=O)NC2=O)C3=O)CC1` (stereo partly drawn) [Example 27, 3-(5-(((1R,2S)-2-((4,4-dimethylcyclohexyl)amino)cyclohexyl)methyl)-1-oxoisoindolin-2-yl)piperidine-2,6-dione], for which, in test [1], the Dmax turned out to be 27% and the DC50 was 0.07 µM. In test [2], the Dmax came out at 97% and the DC50 turned out to be 0.003 µM.
